Experimental data taken from ChEMBL document CHEMBL1201862, “PubChem BioAssay data set” (2004).
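Test compounds were applied to cells in 96-well plates for 48 hours at 5 doses. GI50: concentration for 50% inhibition of growth.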 The source made the active and inactive calls. Rule as the data show it: active = GI50 up to about 1.1 µM and inactive = higher.

Tests used:
Assay in all cases: DTP human tumour cell line panel, 48 h
RPMI-8226 = test system: RPMI-8226
DU-145 = test system: DU-145
HOP-62 = test system: HOP-62
MDA-MB-435 = test system: MDA-MB-435
UO-31 = test system: UO-31
TK-10 = test system: TK-10
MOLT-4 = test system: MOLT-4
BT-549 = test system: BT-549
PC-3 = test system: PC-3
SK-OV-3 = test system: SK-OV-3
UACC-62 = test system: UACC-62
HT-29 = test system: HT-29
KM12 = test system: KM12
HCC 2998 = test system: HCC 2998
SW-620 = test system: SW-620
CCRF-CEM = test system: CCRF-CEM
786-0 = test system: 786-0
SF-295 = test system: SF-295
MCF7 = test system: MCF7
UACC-257 = test system: UACC-257

| SMILES | GI50 (RPMI-8226) | GI50 (DU-145) | GI50 (HOP-62) | GI50 (MDA-MB-435) | GI50 (UO-31) | GI50 (TK-10) | GI50 (MOLT-4) | GI50 (BT-549) | GI50 (PC-3) | GI50 (SK-OV-3) | GI50 (UACC-62) | GI50 (HT-29) | GI50 (KM12) | GI50 (HCC 2998) | GI50 (SW-620) | GI50 (CCRF-CEM) | GI50 (786-0) | GI50 (SF-295) | GI50 (MCF7) | GI50 (UACC-257) |
| --- | --- | --- | --- | --- | --- | --- | --- | --- | --- | --- | --- | --- | --- | --- | --- | --- | --- | --- | --- | --- |
| Cn1cc(C[C@@H](N)C(=O)O)c2ccccc21 [INDOXIMOD] | > 100 µM (inactive) | > 100 µM (inactive) | > 100 µM (inactive) | > 100 µM (inactive) | > 100 µM (inactive) | > 100 µM (inactive) | > 100 µM (inactive) | > 100 µM (inactive) | > 100 µM (inactive) | > 100 µM (inactive) | > 100 µM (inactive) | > 100 µM (inactive) | > 100 µM (inactive) | > 100 µM (inactive) | > 100 µM (inactive) | > 100 µM (inactive) | > 100 µM (inactive) | > 100 µM (inactive) | > 100 µM (inactive) | > 100 µM (inactive) |
| COc1ccc([C@]23CCC4(OCC(C)(C)CO4)[C@H]4CON(O[C@H](O[C@@H]5CCCCC5C(C)(C)c5ccccc5)C2)[C@@H]43)cc1OC (stereo not given in full) | 26.9 µM (inactive) | 59.3 µM (inactive) | 97.3 µM (inactive) | 25.9 µM (inactive) | 35.8 µM (inactive) | 78.5 µM (inactive) | 17.7 µM (inactive) | 69 µM (inactive) | 39.6 µM (inactive) | 78.3 µM (inactive) | 30.4 µM (inactive) | 44 µM (inactive) | 29.6 µM (inactive) | > 100 µM (inactive) | 36.4 µM (inactive) | 29.5 µM (inactive) | 50.5 µM (inactive) | 39 µM (inactive) | 30.1 µM (inactive) | 36.6 µM (inactive) |
| Cc1ccc(Cc2n[nH]c(=O)n2/N=C\CC/C=N\n2c(Cc3ccc(C)cc3)n[nH]c2=O)cc1 | 57.9 µM (inactive) | > 100 µM (inactive) | 6.37 µM (inactive) | 36.3 µM (inactive) | > 100 µM (inactive) | > 100 µM (inactive) | 19.1 µM (inactive) | 23 µM (inactive) | 31.3 µM (inactive) | 36.6 µM (inactive) | 25.8 µM (inactive) | 28.8 µM (inactive) | > 100 µM (inactive) | > 100 µM (inactive) | 43 µM (inactive) | 4.1 µM (inactive) | 18.5 µM (inactive) | 29.9 µM (inactive) | 23.9 µM (inactive) | 57.4 µM (inactive) |
| COc1cc(OC)c2c(c1-c1ccc(C)cc1)CC(C)N(Cc1ccccc1)[C@H]2C (stereo not given in full) | 13.5 µM (inactive) | 86.3 µM (inactive) | 59 µM (inactive) | 33.3 µM (inactive) | 47.9 µM (inactive) | 38.3 µM (inactive) | 23.6 µM (inactive) | 28.2 µM (inactive) | 36.1 µM (inactive) | 31.8 µM (inactive) | 39.1 µM (inactive) | 18.5 µM (inactive) | 28.2 µM (inactive) | 31.1 µM (inactive) | 34.8 µM (inactive) | 7.76 µM (inactive) | 33.7 µM (inactive) | 70.3 µM (inactive) | 28.5 µM (inactive) | 25.2 µM (inactive) |
| COc1cc2c(cc1OC)C1c3ccccc3CCN1CCC2.[O-][Cl+3]([O-])([O-])O (stereo not given) | 63.7 µM (inactive) | > 100 µM (inactive) | > 100 µM (inactive) | 83.6 µM (inactive) | 48.4 µM (inactive) | > 100 µM (inactive) | > 100 µM (inactive) | 23.6 µM (inactive) | > 100 µM (inactive) | > 100 µM (inactive) | > 100 µM (inactive) | 69.7 µM (inactive) | > 100 µM (inactive) | > 100 µM (inactive) | > 100 µM (inactive) | > 100 µM (inactive) | > 100 µM (inactive) | > 100 µM (inactive) | > 100 µM (inactive) | > 100 µM (inactive) |
| COc1cc2c(cc1OCCCC(=O)Nc1cc(C(=O)Nc3cc(C(=O)Nc4cc(C(=O)NCCCN(C)C)n(C)c4)n(C)c3)n(C)c1)N=C[C@@H]1CCCN1C2=O | 1.67 µM (inactive) | 3.47 µM (inactive) | 3.56 µM (inactive) | 1.79 µM (inactive) | 1.66 µM (inactive) | 1.87 µM (inactive) | 3.2 µM (inactive) | 1.96 µM (inactive) | 2.28 µM (inactive) | 14.6 µM (inactive) | 2.19 µM (inactive) | 1.91 µM (inactive) | 16.3 µM (inactive) | 14.2 µM (inactive) | 1.69 µM (inactive) | 0.348 µM (active) | 1.12 µM (active) | 12.2 µM (inactive) | 2.16 µM (inactive) | 1.97 µM (inactive) |
| CC(=O)N1CC[N+](C)(CCCCN2c3ccccc3Sc3cc(N=[N+]=[N-])ccc32)CC1 | > 100 µM (inactive) | > 100 µM (inactive) | > 100 µM (inactive) | > 100 µM (inactive) | > 100 µM (inactive) | > 100 µM (inactive) | > 100 µM (inactive) | > 100 µM (inactive) | > 100 µM (inactive) | > 100 µM (inactive) | > 100 µM (inactive) | > 100 µM (inactive) | > 100 µM (inactive) | > 100 µM (inactive) | > 100 µM (inactive) | > 100 µM (inactive) | > 100 µM (inactive) | > 100 µM (inactive) | > 100 µM (inactive) | > 100 µM (inactive) |
| CC1=CC(=O)/C(=C/Nc2nc(-c3ccc([N+](=O)[O-])cc3)cs2)C(=O)O1 | > 100 µM (inactive) | > 100 µM (inactive) | > 100 µM (inactive) | > 100 µM (inactive) | > 100 µM (inactive) | > 100 µM (inactive) | 61.4 µM (inactive) | > 100 µM (inactive) | 46.5 µM (inactive) | > 100 µM (inactive) | > 100 µM (inactive) | > 100 µM (inactive) | > 100 µM (inactive) | > 100 µM (inactive) | > 100 µM (inactive) | 31.5 µM (inactive) | > 100 µM (inactive) | > 100 µM (inactive) | > 100 µM (inactive) | > 100 µM (inactive) |
| C=C(C(=O)OCC)C(=O)OCC | > 100 µM (inactive) | > 100 µM (inactive) | > 100 µM (inactive) | > 100 µM (inactive) | > 100 µM (inactive) | > 100 µM (inactive) | > 100 µM (inactive) | > 100 µM (inactive) | > 100 µM (inactive) | > 100 µM (inactive) | > 100 µM (inactive) | > 100 µM (inactive) | > 100 µM (inactive) | > 100 µM (inactive) | > 100 µM (inactive) | > 100 µM (inactive) | > 100 µM (inactive) | > 100 µM (inactive) | > 100 µM (inactive) | > 100 µM (inactive) |
| CC(C)=CCC[C@@H](C)c1c2ncc[nH]c-2c(C)c(=O)c1O | 20 µM (inactive) | 31.6 µM (inactive) | 19.2 µM (inactive) | 41.9 µM (inactive) | 6.92 µM (inactive) | 31.1 µM (inactive) | 10.4 µM (inactive) | 30.8 µM (inactive) | 35.2 µM (inactive) | 31.8 µM (inactive) | 18.7 µM (inactive) | 27.4 µM (inactive) | 10.6 µM (inactive) | 31.9 µM (inactive) | 33.1 µM (inactive) | 4.53 µM (inactive) | 39.4 µM (inactive) | 16.5 µM (inactive) | 36.8 µM (inactive) | 31.9 µM (inactive) |
| O=C(/C=C\Nc1ccccc1O)C(F)(F)F | 15.5 µM (inactive) | > 100 µM (inactive) | 30.6 µM (inactive) | 60.1 µM (inactive) | 27.7 µM (inactive) | > 100 µM (inactive) | 31.7 µM (inactive) | > 100 µM (inactive) | 37.3 µM (inactive) | 49.1 µM (inactive) | 45.4 µM (inactive) | > 100 µM (inactive) | > 100 µM (inactive) | > 100 µM (inactive) | > 100 µM (inactive) | 39 µM (inactive) | 35.1 µM (inactive) | 50 µM (inactive) | 43.9 µM (inactive) | 26.1 µM (inactive) |
| O=C1CN2CCN(CC2)CC(=O)Nc2ccc(cc2)S(=O)(=O)c2ccc(cc2)NC(=O)CN2CCN(CC2)CC(=O)Nc2ccc(cc2)S(=O)(=O)c2ccc(cc2)N1 | 10.1 µM (inactive) | 51.6 µM (inactive) | 44.4 µM (inactive) | 35.2 µM (inactive) | > 92.5 µM (inactive) | > 92.7 µM (inactive) | 6.81 µM (inactive) | 31.5 µM (inactive) | > 100 µM (inactive) | > 100 µM (inactive) | 40.1 µM (inactive) | 15 µM (inactive) | 32.2 µM (inactive) | > 61.9 µM (inactive) | 14.1 µM (inactive) | 0.31 µM (active) | 33.3 µM (inactive) | > 88.7 µM (inactive) | 18.1 µM (inactive) | > 100 µM (inactive) |
| Cc1cc(NC(=O)NC(=O)c2ccccc2N(C)C)ccc1Oc1ncc(Br)cn1 | 0.451 µM (active) | 1.06 µM (active) | 0.659 µM (active) | 0.0424 µM (active) | 2.04 µM (inactive) | 4.51 µM (inactive) | 1.08 µM (active) | 0.731 µM (active) | 0.333 µM (active) | 0.437 µM (active) | 0.301 µM (active) | 0.305 µM (active) | 0.359 µM (active) | 0.53 µM (active) | 0.301 µM (active) | 0.237 µM (active) | 0.425 µM (active) | 0.224 µM (active) | 0.249 µM (active) | 0.41 µM (active) |
| O=C1C=CC2CCC1C2 (stereo not given) | 34 µM (inactive) | 34.2 µM (inactive) | 43.1 µM (inactive) | 17.2 µM (inactive) | 31.2 µM (inactive) | 66.1 µM (inactive) | 26.4 µM (inactive) | 21.4 µM (inactive) | 45 µM (inactive) | 24.4 µM (inactive) | 19.2 µM (inactive) | 32.3 µM (inactive) | 32.4 µM (inactive) | 30.1 µM (inactive) | 32.1 µM (inactive) | 28.4 µM (inactive) | 40.9 µM (inactive) | 44.2 µM (inactive) | 31.1 µM (inactive) | 46.8 µM (inactive) |
